The text below walks through data of ChEMBL document CHEMBL5131435, “Boronic acid derivative activates pyruvate kinase M2 indispensable for redox metabolism in oral cancer cells” (Bioorg Med Chem Lett, 2022).

Calls of active or inactive are those of the source. The rule behind the calls is not given here.

What all share (assay type): cell-based
The target of assay [1] is T1, Pyruvate kinase PKM (Homo sapiens, UniProt P14618). Kind of assay: Activation of PKM2 in human CAL-27 cells assessed as decrease in GSH level at 12.5 to 50 nM. The note with it: filed as activator, dose 12.5-50 nM.
Target sequence in this assay (P14618 2-531 limits assumed): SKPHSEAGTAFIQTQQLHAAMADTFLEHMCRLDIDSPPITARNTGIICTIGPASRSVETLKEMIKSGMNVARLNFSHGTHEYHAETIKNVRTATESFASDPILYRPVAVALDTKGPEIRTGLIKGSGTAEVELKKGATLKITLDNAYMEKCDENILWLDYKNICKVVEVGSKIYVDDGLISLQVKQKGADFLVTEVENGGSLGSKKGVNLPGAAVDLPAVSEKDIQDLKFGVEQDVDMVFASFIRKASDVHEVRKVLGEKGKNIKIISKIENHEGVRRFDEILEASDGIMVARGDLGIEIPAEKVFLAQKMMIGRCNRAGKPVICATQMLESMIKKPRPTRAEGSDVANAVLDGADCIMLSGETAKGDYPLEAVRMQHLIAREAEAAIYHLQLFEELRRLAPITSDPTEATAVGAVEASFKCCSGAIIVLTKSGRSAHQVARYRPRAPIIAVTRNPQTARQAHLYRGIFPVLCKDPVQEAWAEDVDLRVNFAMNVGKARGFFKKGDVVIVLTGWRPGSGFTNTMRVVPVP
In assay [2] the target is T1, Pyruvate kinase PKM. Briefly: Activation of PKM2 in human CAL-27 cells assessed as decrease in NADP+/NADPH ratio at 12.5 to 50 nM. The note with it: filed as activator, dose 12.5-50 nM.
Target sequence in this assay (P14618 2-531 limits assumed): as above
Assay [3] concerns the target T1, Pyruvate kinase PKM. Briefly: Activation of PKM2 in human CAL-27 cells assessed as decrease in lactate levels at 12.5 to 50 nM. The note with it: filed as activator, dose 12.5-50 nM.
Target sequence in this assay (P14618 2-531 limits assumed): as above
Assay [4] deals with T1, Pyruvate kinase PKM. Briefly: Activation of PKM2 in human CAL-27 cells assessed as increased in TPI1 activity at 12.5 to 50 nM measured after 3 hrs. The following applies: filed as activator, dose 12.5-50 nM.
Target sequence in this assay (P14618 2-531 limits assumed): as above
For assay [5], the target named is T1, Pyruvate kinase PKM. Kind of assay: Activation of PKM2 in human CAL-27 cells measured after 3 hrs.
Assay [6] addresses T1, Pyruvate kinase PKM. Briefly: Activation of PKM2 in human CAL-27 cells assessed as increased in TPI1 activity at 52 nM measured after 3 hrs. The note with it: filed as activator.
Target sequence in this assay (P14618 2-531 limits assumed): as above
Assay [7] concerns the target T1, Pyruvate kinase PKM. Briefly: Activation of PKM2 in human CAL-27 cells assessed as decrease in GSH level at 52 nM. The following applies: filed as activator.
Target sequence in this assay (P14618 2-531 limits assumed): as above

As for `CCOC(=O)/C(=C\c1ccc(B(O)O)cc1)C(=O)c1sc(Nc2ccc(Cl)cc2)nc1N(C)C`, the result at Pyruvate kinase PKM [1], on Pyruvate kinase PKM [2], on Pyruvate kinase PKM [3] and at Pyruvate kinase PKM [4] was Active. In addition, at Pyruvate kinase PKM [5], the activity was half-maximal at 50 nM (AC50). Also, the Activity entry on Pyruvate kinase PKM [5] (filed as activator, dose 10-100 nM, DDE = dose-dependent effect) was “Dde”.
Turning to `Nc1cccc(S(=O)(=O)N2CCCN(S(=O)(=O)c3ccc4c(c3)OCCO4)CC2)c1`, the outcome at Pyruvate kinase PKM [6] and at Pyruvate kinase PKM [7] was Active. The same compound yielded a half-maximal activity concentration (AC50) on Pyruvate kinase PKM [5] of 52 nM.
